Test results as given in ChEMBL document CHEMBL1201862, “PubChem BioAssay data set” (2004).
The source made the active and inactive calls.

How the values were obtained:
Hexokinase-1 = Hexokinase-1 (Homo sapiens, UniProt P19367); experiment: SAR analysis of small molecule inhibitors of hexokinase domain containing I (HKDC1) in the hexokinase 1 selectivity assay. [Related pubchem assays (depositor defined):AID493160, AID493190]; format: functional
Hexokinase HKDC1 = target: T1, Hexokinase HKDC1 (Homo sapiens, UniProt Q2TB90); experiment: SAR analysis of small molecule inhibitors of hexokinase domain containing I (HKDC1). [Related pubchem assays (depositor defined):AID493160, AID493190]; format: functional
T1 sequence (Q2TB90 whole entry): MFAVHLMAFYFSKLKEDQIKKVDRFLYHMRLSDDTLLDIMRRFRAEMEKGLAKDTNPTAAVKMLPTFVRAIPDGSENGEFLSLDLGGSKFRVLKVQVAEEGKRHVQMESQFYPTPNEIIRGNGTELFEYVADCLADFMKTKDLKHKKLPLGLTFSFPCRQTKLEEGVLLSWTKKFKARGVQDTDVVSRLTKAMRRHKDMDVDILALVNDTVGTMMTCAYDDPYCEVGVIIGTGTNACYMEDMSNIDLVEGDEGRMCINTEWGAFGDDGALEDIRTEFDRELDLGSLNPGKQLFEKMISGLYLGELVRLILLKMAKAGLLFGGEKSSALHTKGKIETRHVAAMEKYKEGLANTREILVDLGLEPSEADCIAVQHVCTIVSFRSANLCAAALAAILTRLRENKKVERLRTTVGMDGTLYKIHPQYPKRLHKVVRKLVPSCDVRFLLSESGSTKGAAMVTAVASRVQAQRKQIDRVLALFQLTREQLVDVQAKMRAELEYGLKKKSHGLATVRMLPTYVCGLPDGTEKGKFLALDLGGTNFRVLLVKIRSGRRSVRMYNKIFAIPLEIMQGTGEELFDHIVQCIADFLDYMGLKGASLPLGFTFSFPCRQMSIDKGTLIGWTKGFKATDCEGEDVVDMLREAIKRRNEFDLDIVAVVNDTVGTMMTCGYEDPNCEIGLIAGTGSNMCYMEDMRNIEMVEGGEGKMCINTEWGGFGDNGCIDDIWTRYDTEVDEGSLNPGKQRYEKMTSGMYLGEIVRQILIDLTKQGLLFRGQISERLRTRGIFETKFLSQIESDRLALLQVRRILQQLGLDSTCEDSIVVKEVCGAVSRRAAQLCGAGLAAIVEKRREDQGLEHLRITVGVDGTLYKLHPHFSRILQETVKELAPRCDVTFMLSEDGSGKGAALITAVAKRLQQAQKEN

[1] = target: Delta-type opioid receptor (Homo sapiens, UniProt P41143); experiment: Counterscreen for agonists of heterodimerization of the mu 1 (OPRM1) and delta 1 (OPRD1) opioid receptors: Luminescence-based cell-based high throughput dose response assay to identify agonists of OPRD1 homodimerization. [Related pubchem assays (depositor defined):AID504326, AID504355, AID504692, AID504904, AID504905]; format: functional
[2] = target: Nucleotide-binding oligomerization domain-containing protein 2 (Homo sapiens, UniProt Q9HC29); experiment: NOD2 signaling inhibitors, cell-based, luminescence, uHTS, HEK293 (AID 1566); format: functional
[3] = target: 5-hydroxytryptamine receptor 5A (Homo sapiens, UniProt P47898); experiment: Counterscreen for agonists of OPRM1-OPRD1 heterodimerization: luminescence-based cell-based high throughput dose response assay to identify agonists of 5-hydroxytryptamine (serotonin) 5A receptor (HTR5A). [Related pubchem assays (depositor defined):AID504326, AID504355, AID504692, AID504904, AID504905]; format: functional
HEK293 [4] = experiment: cells; format: functional, cell-based; settings: Homo sapiens
HEK293 [5] = experiment: NOD2 signaling inhibitors in MDP-stimulated cells, cell-based, uHTS, luminescence (AID 2001); format: functional; settings: Homo sapiens
HEK293 [6] = experiment: cells; format: functional, cell-based; settings: Homo sapiens; remark: listed apart in the source
[7] = target: T2, Short transient receptor potential channel 4 (Mus musculus, UniProt Q9QUQ5); experiment: mouse TRPC4 channel inhibitors, dose response, cell-based, HEK293 TRPC4/mu-opioid, Fluo-4 calcium (AID 434942); format: functional;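 also: potency of inhibitors blocking the TRPC4 calcium response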
T2 sequence (Q9QUQ5 whole entry): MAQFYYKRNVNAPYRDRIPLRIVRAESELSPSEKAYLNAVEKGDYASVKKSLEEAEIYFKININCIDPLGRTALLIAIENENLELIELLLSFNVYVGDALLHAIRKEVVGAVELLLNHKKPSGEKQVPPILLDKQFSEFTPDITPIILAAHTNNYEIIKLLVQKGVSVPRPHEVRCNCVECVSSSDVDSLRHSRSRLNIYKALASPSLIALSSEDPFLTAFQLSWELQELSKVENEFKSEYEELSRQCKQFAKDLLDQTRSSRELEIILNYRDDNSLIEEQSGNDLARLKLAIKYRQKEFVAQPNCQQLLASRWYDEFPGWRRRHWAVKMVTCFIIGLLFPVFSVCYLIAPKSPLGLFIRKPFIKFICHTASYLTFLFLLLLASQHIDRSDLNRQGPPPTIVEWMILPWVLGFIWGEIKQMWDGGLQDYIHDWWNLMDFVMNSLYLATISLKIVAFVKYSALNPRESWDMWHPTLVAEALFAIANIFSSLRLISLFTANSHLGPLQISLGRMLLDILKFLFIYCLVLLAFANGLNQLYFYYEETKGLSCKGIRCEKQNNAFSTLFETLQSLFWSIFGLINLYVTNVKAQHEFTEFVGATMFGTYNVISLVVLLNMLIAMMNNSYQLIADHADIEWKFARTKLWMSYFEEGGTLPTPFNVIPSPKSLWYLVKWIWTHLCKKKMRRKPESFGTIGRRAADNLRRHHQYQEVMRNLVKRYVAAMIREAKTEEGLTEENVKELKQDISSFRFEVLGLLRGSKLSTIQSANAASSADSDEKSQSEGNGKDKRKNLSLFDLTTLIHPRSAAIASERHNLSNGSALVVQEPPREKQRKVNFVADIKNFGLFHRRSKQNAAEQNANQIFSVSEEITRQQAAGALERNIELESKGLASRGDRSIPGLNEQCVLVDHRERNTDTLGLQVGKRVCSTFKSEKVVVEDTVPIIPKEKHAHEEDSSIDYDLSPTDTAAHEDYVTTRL

Mu-type opioid receptor = Mu-type opioid receptor (Homo sapiens, UniProt P35372); experiment: Counterscreen for agonists of heterodimerization of the mu 1 (OPRM1) and delta 1 (OPRD1) opioid receptors: Luminescence-based cell-based high throughput dose response assay to identify agonists of OPRM1 homodimerization.; format: functional;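 also: U2OS cells expressing OPRM1 and beta-arrestin as split beta-galactosidase partners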
HEK293 [8] = experiment: cells; format: functional, cell-based; settings: Homo sapiens; remark: listed apart in the source
HEK293 [9] = experiment: NOD1 signaling inhibitors, primary screen, cell-based, luminescence, uHTS (AID 1578); format: functional; settings: Homo sapiens
DNA topoisomerase = DNA topoisomerase (Yersinia pestis, UniProt A0A2S9PM60); experiment: Y. pestis Topo-I inhibitors, cleavage product readout, dose response, biochemical, cherry-pick (AID 588525)
[10] = target: FAD-linked sulfhydryl oxidase ALR (Homo sapiens, UniProt P55789); experiment: inhibitors of human ALR sulfhydryl oxidase, dose response, biochemical, H2O2 detection, luminescence, cherry-pick (AID 493248)
[11] = target: Dual specificity protein kinase CLK1 (Homo sapiens, UniProt P49759); experiment: CLK1 kinase inhibitors, off-target check, dose response, selectivity assay for Dyrk1A inhibitor project, biochemical, cherry-picked samples (AID 588811)
[12] = target: Dual specificity tyrosine-phosphorylation-regulated kinase 1A (Rattus norvegicus, UniProt Q63470); format: biochemical, Homo sapiens

Chain of Hexokinase-1 (P19367 whole entry, the tested form may be a part): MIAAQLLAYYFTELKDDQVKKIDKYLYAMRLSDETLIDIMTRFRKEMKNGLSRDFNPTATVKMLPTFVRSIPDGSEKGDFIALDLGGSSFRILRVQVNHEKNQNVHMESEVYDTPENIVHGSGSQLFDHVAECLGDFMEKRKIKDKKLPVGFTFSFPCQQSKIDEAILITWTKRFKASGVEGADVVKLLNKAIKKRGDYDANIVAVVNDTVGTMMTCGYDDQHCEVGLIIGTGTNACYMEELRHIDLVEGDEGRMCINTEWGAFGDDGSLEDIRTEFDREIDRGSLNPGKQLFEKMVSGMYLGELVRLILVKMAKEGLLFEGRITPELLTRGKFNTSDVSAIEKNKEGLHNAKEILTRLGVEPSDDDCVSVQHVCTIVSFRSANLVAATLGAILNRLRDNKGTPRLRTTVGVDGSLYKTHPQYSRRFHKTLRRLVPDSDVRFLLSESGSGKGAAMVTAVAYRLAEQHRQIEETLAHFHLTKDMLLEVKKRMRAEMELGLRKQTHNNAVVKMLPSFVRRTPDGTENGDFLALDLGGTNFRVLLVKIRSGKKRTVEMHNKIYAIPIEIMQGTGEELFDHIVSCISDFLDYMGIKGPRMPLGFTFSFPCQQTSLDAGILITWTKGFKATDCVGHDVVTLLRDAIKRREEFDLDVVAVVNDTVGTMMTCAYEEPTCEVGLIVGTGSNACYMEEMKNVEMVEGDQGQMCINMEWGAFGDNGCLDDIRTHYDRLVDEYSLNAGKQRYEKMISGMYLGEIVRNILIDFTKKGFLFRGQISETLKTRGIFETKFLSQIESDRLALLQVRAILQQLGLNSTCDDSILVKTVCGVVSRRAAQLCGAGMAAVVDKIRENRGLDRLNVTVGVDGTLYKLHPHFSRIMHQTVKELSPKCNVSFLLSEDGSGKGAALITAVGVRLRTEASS
Chain of Nucleotide-binding oligomerization domain-containing protein 2 (Q9HC29 whole entry, the tested form may be a part): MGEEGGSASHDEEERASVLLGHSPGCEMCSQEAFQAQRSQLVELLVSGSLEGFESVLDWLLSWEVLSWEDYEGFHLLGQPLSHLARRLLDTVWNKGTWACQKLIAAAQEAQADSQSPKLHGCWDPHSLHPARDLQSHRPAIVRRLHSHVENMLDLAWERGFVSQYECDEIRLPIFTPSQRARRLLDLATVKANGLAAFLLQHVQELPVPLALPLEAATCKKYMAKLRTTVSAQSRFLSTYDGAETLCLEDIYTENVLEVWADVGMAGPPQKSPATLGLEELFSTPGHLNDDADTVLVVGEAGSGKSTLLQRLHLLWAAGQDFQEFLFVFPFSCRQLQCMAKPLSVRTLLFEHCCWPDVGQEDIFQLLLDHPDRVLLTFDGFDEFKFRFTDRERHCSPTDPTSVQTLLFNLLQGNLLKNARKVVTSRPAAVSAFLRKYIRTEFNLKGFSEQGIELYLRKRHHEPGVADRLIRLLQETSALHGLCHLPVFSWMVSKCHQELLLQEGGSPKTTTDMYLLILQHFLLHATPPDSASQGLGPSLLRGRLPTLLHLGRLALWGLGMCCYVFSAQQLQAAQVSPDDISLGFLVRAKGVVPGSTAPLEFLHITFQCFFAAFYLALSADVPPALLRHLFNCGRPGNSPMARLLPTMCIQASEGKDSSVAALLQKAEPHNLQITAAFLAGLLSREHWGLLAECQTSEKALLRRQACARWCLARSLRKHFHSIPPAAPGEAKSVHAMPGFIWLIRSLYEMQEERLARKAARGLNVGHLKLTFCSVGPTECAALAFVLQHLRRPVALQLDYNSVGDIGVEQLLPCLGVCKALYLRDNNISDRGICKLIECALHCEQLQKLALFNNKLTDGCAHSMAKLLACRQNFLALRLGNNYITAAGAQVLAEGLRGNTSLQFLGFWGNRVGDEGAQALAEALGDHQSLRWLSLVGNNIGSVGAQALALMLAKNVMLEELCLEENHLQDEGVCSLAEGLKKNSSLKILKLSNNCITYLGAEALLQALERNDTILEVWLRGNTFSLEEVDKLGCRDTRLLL
Chain of DNA topoisomerase (A0A2S9PM60 whole entry): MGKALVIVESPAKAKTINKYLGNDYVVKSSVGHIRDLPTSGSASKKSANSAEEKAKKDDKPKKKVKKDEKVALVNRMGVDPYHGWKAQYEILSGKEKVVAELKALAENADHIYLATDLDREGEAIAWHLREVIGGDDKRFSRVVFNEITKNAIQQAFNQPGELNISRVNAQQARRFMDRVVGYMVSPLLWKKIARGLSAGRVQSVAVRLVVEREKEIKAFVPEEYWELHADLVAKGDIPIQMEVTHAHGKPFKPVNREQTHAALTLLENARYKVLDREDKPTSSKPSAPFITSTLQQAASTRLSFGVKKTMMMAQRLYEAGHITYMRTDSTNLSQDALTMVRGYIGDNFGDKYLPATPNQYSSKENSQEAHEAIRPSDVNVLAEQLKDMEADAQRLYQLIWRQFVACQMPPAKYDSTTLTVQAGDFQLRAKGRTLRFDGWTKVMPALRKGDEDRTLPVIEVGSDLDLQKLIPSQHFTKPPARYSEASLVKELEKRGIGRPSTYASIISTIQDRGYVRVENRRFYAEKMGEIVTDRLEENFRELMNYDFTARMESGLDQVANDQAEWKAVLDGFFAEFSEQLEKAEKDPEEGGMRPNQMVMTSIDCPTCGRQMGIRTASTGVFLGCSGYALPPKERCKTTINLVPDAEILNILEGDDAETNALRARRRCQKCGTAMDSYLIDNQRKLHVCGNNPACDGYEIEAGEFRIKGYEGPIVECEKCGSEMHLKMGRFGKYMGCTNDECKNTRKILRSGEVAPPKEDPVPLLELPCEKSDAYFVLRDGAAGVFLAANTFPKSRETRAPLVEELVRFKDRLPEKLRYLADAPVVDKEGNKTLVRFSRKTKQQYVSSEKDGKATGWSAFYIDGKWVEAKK
Chain of Dual specificity protein kinase CLK1 (P49759 whole entry): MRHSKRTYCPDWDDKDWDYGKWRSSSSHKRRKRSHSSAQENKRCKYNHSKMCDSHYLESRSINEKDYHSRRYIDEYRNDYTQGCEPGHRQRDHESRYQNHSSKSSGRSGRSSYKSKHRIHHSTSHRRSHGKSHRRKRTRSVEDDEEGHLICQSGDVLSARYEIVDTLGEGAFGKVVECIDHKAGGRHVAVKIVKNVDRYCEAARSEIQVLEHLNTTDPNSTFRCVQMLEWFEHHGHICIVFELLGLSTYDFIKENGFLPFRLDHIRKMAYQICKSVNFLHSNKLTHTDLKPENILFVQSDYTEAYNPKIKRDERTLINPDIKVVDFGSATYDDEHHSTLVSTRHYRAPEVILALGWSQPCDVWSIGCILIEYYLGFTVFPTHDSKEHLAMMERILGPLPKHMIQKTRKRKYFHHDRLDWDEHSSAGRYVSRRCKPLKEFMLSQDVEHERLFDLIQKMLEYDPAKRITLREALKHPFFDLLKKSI
Chain of FAD-linked sulfhydryl oxidase ALR (P55789 whole entry): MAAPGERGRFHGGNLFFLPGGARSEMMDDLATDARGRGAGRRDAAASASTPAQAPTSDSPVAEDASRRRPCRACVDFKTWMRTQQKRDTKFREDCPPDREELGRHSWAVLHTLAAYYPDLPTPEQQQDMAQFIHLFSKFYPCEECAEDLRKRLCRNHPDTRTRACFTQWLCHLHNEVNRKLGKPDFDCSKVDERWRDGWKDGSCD
Chain of 5-hydroxytryptamine receptor 5A (P47898 whole entry): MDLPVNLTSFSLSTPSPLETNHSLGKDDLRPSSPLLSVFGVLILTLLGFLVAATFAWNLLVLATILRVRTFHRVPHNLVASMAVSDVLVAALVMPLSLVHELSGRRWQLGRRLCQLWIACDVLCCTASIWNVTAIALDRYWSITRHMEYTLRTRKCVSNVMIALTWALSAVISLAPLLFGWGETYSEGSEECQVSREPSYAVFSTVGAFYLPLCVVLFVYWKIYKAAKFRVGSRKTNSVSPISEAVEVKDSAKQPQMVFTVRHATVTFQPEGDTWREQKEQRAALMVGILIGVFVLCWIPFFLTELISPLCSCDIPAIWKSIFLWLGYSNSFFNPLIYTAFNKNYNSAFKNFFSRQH
Chain of Delta-type opioid receptor (P41143 whole entry, the tested form may be a part): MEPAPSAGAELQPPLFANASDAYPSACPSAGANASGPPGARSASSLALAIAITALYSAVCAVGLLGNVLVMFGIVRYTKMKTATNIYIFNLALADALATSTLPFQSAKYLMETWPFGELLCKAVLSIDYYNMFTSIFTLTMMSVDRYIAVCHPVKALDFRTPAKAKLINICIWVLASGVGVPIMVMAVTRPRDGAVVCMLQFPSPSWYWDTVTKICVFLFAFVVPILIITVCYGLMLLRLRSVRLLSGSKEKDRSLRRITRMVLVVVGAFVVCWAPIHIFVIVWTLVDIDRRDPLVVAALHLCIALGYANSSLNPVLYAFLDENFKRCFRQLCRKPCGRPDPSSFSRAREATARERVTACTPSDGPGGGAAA
Chain of Mu-type opioid receptor (P35372 whole entry): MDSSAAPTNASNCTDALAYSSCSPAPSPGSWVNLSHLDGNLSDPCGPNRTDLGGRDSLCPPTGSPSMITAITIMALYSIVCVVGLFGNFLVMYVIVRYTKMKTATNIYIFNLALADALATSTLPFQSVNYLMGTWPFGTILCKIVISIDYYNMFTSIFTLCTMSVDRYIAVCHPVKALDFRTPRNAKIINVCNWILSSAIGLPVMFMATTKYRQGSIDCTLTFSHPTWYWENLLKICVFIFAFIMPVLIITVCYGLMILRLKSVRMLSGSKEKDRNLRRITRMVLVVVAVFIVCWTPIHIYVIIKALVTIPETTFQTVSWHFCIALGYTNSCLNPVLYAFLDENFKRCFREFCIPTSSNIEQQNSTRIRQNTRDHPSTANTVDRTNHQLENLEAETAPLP

`O=c1c2ccccc2nc(/C=C/c2cccnc2)n1Cc1ccccc1Cl` was tested, and the IC50 (Hexokinase-1) was > 80 µM (inactive) and the IC50 (Hexokinase HKDC1) was > 80 µM (inactive).

For `O=c1c2ccccc2nc(/C=C/c2cccc(Cl)c2)n1Cc1ccccc1`, the IC50 (Hexokinase-1) was > 80 µM (inactive) and the IC50 (Hexokinase HKDC1) was > 80 µM (inactive).

With `Cc1nc(N2CCN(c3ccccn3)CC2)c2c(C)c(C(=O)N3CCN(c4ccc(F)cc4)CC3)sc2n1` the EC50 [1] was > 92.4 µM (inactive), the EC50 [2] was 5.26 µM (active) and the EC50 [3] was > 92.4 µM (inactive). For the same compound, the IC50 (HEK293 [4]) was > 20 µM (inactive), the IC50 (HEK293 [5]) was 6.95 µM (active) and the IC50 (HEK293 [6]) was 17.1 µM (active). For the same compound, the EC50 [7] was 1.19 µM (active), the EC50 (Mu-type opioid receptor) was 10.8 µM (inactive) and the IC50 (HEK293 [8]) was 6.02 µM (active). The EC50 (HEK293 [9]) was 6.14 µM (active).

`Nc1cc(O)nc(SCC(=O)N2N=C(c3ccc4ccccc4c3)CC2c2ccccc2)n1` (stereo not drawn) was tested, and the AC50 (DNA topoisomerase) was 16.1 µM (active).

With `NC(=O)c1c(NC(=O)c2ccc(N3C(=O)CCC3=O)cc2)sc2c1CCCC2` the AC50 [10] was 0.165 µM (active), the AC50 [11] was 0.853 µM (active) and the AC50 [12] was 3.9 µM (active).
